# Laboratory results from patent publication US20230312582A1, “Salts Of Nitrogen-Containing Heterocyclic Compound, And Solid Forms Of Salts, Pharmaceutical Composition And Use Thereof” (Wuhan Humanwell Innovative Drug Research And Development …, priority 2020, published 2023).
# Where a name gives a salt, the structure may show the parent alone. Read-outs that look alike come from different tables or passages of the source.
# Columns and labels:
# [1] = Stability assay of human liver microsome; format: in vitro ADME; details: human liver microsomes, NADPH, 37° C.
# Experimental: The stability of human liver microsome was detected by in vitro co-incubation of compounds with human liver microsomes. Test compounds were first prepared as 10 mM stock solutions in DMSO solvent, followed by dilution of the compounds to 0.5 mM using acetonitrile. […] The deep-well plate was taken, […] was added to each well, then 15 μL of pre-warmed 6 mM NADPH solution was added to the plate to start the reaction, and the plate was incubated at 37° C. […] The supernatant was taken after centrifugation, and added with purified water at a ratio of 1:1 for LC-MS/MS detection to obtain the ratio of peak area of compound to peak area of internal standard at each time point. […] T1/2 was calculated using Excel.
# [2] = Thermodynamic solubility assay; format: physicochemical; details: thermodynamic from solid
# Experimental: The compounds were weighed out accurately, added to the prepared phosphate buffered saline at pH 7.4, FeSSIF solution at pH 5.8 and FaSSGF solution at pH 1.6 to prepare a solution at a concentration of 4 mg/mL, and the prepared solution was shaken at 1000 rpm for 1 h, and then incubated overnight at room temperature. The incubated solution was centrifuged at 12000 rpm for 10 min to remove undissolved particles, and the supernatant was transferred to a new centrifuge tube. After the supernatant was diluted properly, the supernatant was added with an acetonitrile solution containing an internal standard, and quantified by adopting a standard curve prepared by the same matrix.
# [3] = Pharmacokinetic assay (crystal form) in mice; format: in vivo; details: male, ICR, mouse, plasma, oral intragastric administration 10 mg/kg
# Experimental: (§1) In vivo pharmacokinetic assay in mice was performed, wherein the used mice were 9 male ICR mice weighing 20-25 g and fasted overnight. 9 mice were taken and orally intragastrically administered with 10 mg/kg of the compound. […] Blood samples were centrifuged at 8000 rpm for 6 min at 4° C., and plasma was collected and stored at −20° C. The plasma at each time point was taken and added with 3-5 times of acetonitrile solution containing the internal standard for mixing, and the mixed solution was subjected to vortex mixing for 1 min, and centrifuging at 4° C. for 10 min at 13000 rpm. The supernatant was taken and added with 3 times of water for mixing. A proper amount of the mixed solution was taken for LC-MS/MS analysis. The major pharmacokinetic parameters were analyzed using WinNonlin 7.0 software and a non-compartmental model.
# [4] = In vivo pharmacokinetic assay in rats; details: male, SD, rat, in vivo
# Experimental: as §1, with “rats” for “mice”, “6” for “9”, “SD rats” for “ICR mice”, “180-240” for “20-25”, “overnight.” for “overnight. 9 mice were taken and orally intragastrically administered with 10 mg/kg of the compound.”
# [5] = In vivo pharmacokinetic assay in mice; details: male, ICR, mouse, in vivo
# Experimental: as §1, with “rats” for “mice”, “6” for “9”, “SD rats” for “ICR mice”, “180-240” for “20-25”, “overnight.” for “overnight. 9 mice were taken and orally intragastrically administered with 10 mg/kg of the compound.”
# In vivo pharmacokinetic assay in mice was performed, wherein the used mice were 18 male ICR mice weighing 20-25 g and fasted overnight. […] The rest of the procedure was performed in the same manner as in the pharmacokinetic assay in rats.
# [6] = Hygroscopicity by dynamic vapor sorption (DVS); format: physicochemical; details: for After DVS test Whether the crystal form is changed: 0% RH to 95% RH to 0% RH; for After DVS test Whether the crystal form is changed / Hygroscopicity / Vapor sorption (25° C./80% RH): 25° C.; for Hygroscopicity / Vapor sorption (25° C./80% RH): DVS; for DVS curve vapor sorption: at 0% RH to 80% RH; for Risk evaluation: hygroscopicity evaluation
# Experimental: Dynamic vapor sorption (DVS) curves are acquired on a DVS Intrinsic in SMS (Surface Measurement System). The relative humidity at 25° C. is corrected with the deliquescence points of LiCl, Mg(NO3)2 and KCl.
# Hygroscopicity of the crystal form A of hydrochloride, the crystal form A of fumarate, the crystal form A of benzenesulfonate and the free base crystal form A prepared repeatedly was evaluated using a dynamic vapor sorption (DVS) instrument. Starting at 0% relative humidity (0% RH), the test acquired the percentage change of mass of the sample when humidity changed (0% RH to 95% RH to 0% RH) at a constant temperature of 25° C.
# [7] = Polarizing microscope (PLM) image, particle size; format: physicochemical; details: room temperature
# Description: The polarizing microscope data are acquired by an Axio Lab. A1 upright microscope at room temperature.
# [8] = Dynamic solubility in water and three biological vehicles; format: physicochemical; details: for Crystal form change: XRPD of solid; for pH: filtrate
# Experimental: The dynamic solubility of the crystal form A of hydrochloride, the crystal form A of fumarate, the crystal form A of benzenesulfonate and the free base crystal form A prepared repeatedly was evaluated in water and three biological vehicles. […] After centrifugation of the samples at each time point (0.45 μm PTFE filter head), the filtrate was determined for HPLC concentration and pH, and the centrifuged solid samples were tested for XRPD.
# Solid stability, 1 week = format: physicochemical; details: for Purity (area %): HPLC; for Crystal form change: XRPD
# Experimental: The crystal form A of hydrochloride, the crystal form A of fumarate, the crystal form A of benzenesulfonate and the free base crystal form A prepared repeatedly were placed at 25° C./60% RH and 40° C./75% RH for 1 week, and then the physical and chemical stability of the samples were tested by XRPD and HPLC. […] No significant purity decrease or crystal form transformation occurred in any of the other samples after being placed under 2 conditions for 1 week.
# [9] = intravenous injection 1 mg/kg, read-out: Vz
# [10] = oral intragastric administration 10 mg/kg
# [11] = listed as crystal form A of hydrochloride
smiles,measurement,setting,value
"O=C(COCCc1cnn[nH]1)N1Cc2cnc(NC3Cc4ccccc4C3)nc2C1 [Control compound, reference compound]",Remaining percentage of compound after 30 min of incubation (%),[1],41.2%
same,half-life at 1.5 μM,[1],24.1 min
same,solubility,"[2]; aqueous buffer, PBS, pH 7.4, room temperature overnight, read-out: Solubility PBS (pH 7.4)",6.3 mg/mL
same,solubility,"[2]; fassgf or other biorelevant, FaSSGF, pH 1.6, room temperature overnight, read-out: Solubility FaSSGF (pH 1.6)",66.5 mg/mL
same,solubility,"[2]; FeSSIF, pH 5.8, room temperature overnight, read-out: Solubility FeSSIF (pH 5.8)",18.3 mg/mL
same,AUC(0-t),[3],2900 ng·h/mL
same,Cmax,[3],2040 ng/mL
same,Tmax,[3],15 min
same,half-life,[3],49.8 min
same,AUC(0-t),[4]; intravenous injection 1 mg/kg,580 ng·h/mL
same,clearance,[4]; intravenous injection 1 mg/kg,29.3 mL/min/kg
same,half-life,[4]; intravenous injection 1 mg/kg,27 min
same,Vd,[4]; [9],1.12 L/kg
same,AUC(0-t),[4]; [10],4870 ng·h/mL
same,Cmax,[4]; [10],2590 ng/mL
same,Tmax,[4]; [10],25.2 min
same,half-life,[4]; [10],78.6 min
same,AUC(0-t),[5]; intravenous injection 1 mg/kg,290 ng·h/mL
same,clearance,[5]; intravenous injection 1 mg/kg,57.5 mL/min/kg
same,half-life,[5]; intravenous injection 1 mg/kg,20.4 min
same,Vd,[5]; [9],1.67 L/kg
same,AUC(0-t),[5]; [10],2900 ng·h/mL
same,Cmax,[5]; [10],2040 ng/mL
same,Tmax,[5]; [10],15 min
same,half-life,[5]; [10],49.8 min
C[C@H](Cc1cnn[nH]1)OCC(=O)N1Cc2cnc(NC3Cc4ccccc4C3)nc2C1 [Crystal form A of fumarate],After DVS test Whether the crystal form is changed,[6],No
same,Hygroscopicity,[6],Slightly
same,Vapor sorption (25° C./80% RH),[6],0.60%
same,DVS curve vapor sorption,[6],less than 0.60%
same,Risk evaluation,[6],None
same,particle size,[7],less than 50 μm
same,Crystal form change,"[8]; H2O, 1 h",No
same,Crystal form change,"[8]; H2O, 4 h",No
same,Crystal form change,"[8]; H2O, 24 h",No
same,Crystal form change,"[8]; SGF, 1 h",No
same,Crystal form change,"[8]; SGF, 4 h",No
same,Crystal form change,"[8]; SGF, 24 h",No
same,pH,"[8]; FaSSIF, 1 h",4.9
same,pH,"[8]; FaSSIF, 4 h",4.4
same,pH,"[8]; FaSSIF, 24 h",4.2
same,pH,"[8]; FeSSIF, 1 h",4.8
same,pH,"[8]; FeSSIF, 4 h",4.9
same,pH,"[8]; FeSSIF, 24 h",4.8
same,pH,"[8]; H2O, 1 h",3.6
same,pH,"[8]; H2O, 4 h",3.7
same,pH,"[8]; H2O, 24 h",3.6
same,pH,"[8]; SGF, 1 h",1.9
same,pH,"[8]; SGF, 4 h",1.9
same,pH,"[8]; SGF, 24 h",1.9
same,Purity/initial purity (%),"Solid stability, 1 week; 25° C./60% RH",100.1%
same,Purity (area %),"Solid stability, 1 week; 25° C./60% RH",99.28 area %
same,Crystal form change,"Solid stability, 1 week; 25° C./60% RH",No
same,Purity/initial purity (%),"Solid stability, 1 week; 40° C./75% RH",100.1%
same,Purity (area %),"Solid stability, 1 week; 40° C./75% RH",99.33 area %
same,Crystal form change,"Solid stability, 1 week; 40° C./75% RH",No
C[C@H](Cc1cnn[nH]1)OCC(=O)N1Cc2cnc(NC3Cc4ccccc4C3)nc2C1 [Crystal form A of hydrochloride],After DVS test Whether the crystal form is changed,[6],Yes*
same,After DVS test Whether the crystal form is changed,[6]; [11],changed crystal form
same,Hygroscopicity,[6],Moderately
same,Vapor sorption (25° C./80% RH),[6],3.85%
same,Hygroscopicity,[6]; [11],had hygroscopicity
same,DVS curve vapor sorption,[6],less than 3.85%
same,Risk evaluation,[6],Significantly increased
same,particle size,[7],less than 50 μm
same,pH,"[8]; FaSSIF, 1 h",5.7
same,pH,"[8]; FaSSIF, 4 h",5.5
same,pH,"[8]; FaSSIF, 24 h",5.2
same,pH,"[8]; FeSSIF, 1 h",4.9
same,pH,"[8]; FeSSIF, 4 h",4.9
same,pH,"[8]; FeSSIF, 24 h",4.9
same,pH,"[8]; H2O, 1 h",2.3
same,pH,"[8]; H2O, 4 h",2.2
same,pH,"[8]; H2O, 24 h",2.3
same,pH,"[8]; SGF, 1 h",1.8
same,pH,"[8]; SGF, 4 h",1.8
same,pH,"[8]; SGF, 24 h",1.9
same,solubility in each system compared with that of the free base crystal form A,"[8]; water, SGF, FaSSIF, FeSSIF",significantly improved
same,Purity/initial purity (%),"Solid stability, 1 week; 25° C./60% RH",99.5%
same,Purity (area %),"Solid stability, 1 week; 25° C./60% RH",96.68 area %
same,Crystal form change,"Solid stability, 1 week; 25° C./60% RH",No
same,Purity/initial purity (%),"Solid stability, 1 week; 40° C./75% RH",79.9%
same,XRPD crystallinity,"Solid stability, 1 week; 40° C./75% RH",decreased
same,Purity (area %),"Solid stability, 1 week; 40° C./75% RH",77.67 area %
same,Crystal form change,"Solid stability, 1 week; 40° C./75% RH",No*
C[C@H](Cc1cnn[nH]1)OCC(=O)N1Cc2cnc(NC3Cc4ccccc4C3)nc2C1 [Free base crystal form A],After DVS test Whether the crystal form is changed,[6],No
same,Hygroscopicity,[6],Slightly
same,Vapor sorption (25° C./80% RH),[6],1.03%
same,Risk evaluation,[6],None
same,particle size,[7],less than 50 μm
same,Crystal form change,"[8]; FaSSIF, 1 h",No
same,Crystal form change,"[8]; FaSSIF, 4 h",No
same,Crystal form change,"[8]; FaSSIF, 24 h",No
same,Crystal form change,"[8]; FeSSIF, 1 h",No
same,Crystal form change,"[8]; FeSSIF, 4 h",No
same,Crystal form change,"[8]; FeSSIF, 24 h",No
same,Crystal form change,"[8]; H2O, 1 h",No
same,Crystal form change,"[8]; H2O, 4 h",No
same,Crystal form change,"[8]; H2O, 24 h",No
same,Crystal form change,"[8]; SGF, 1 h",No
same,Crystal form change,"[8]; SGF, 4 h",No
same,Crystal form change,"[8]; SGF, 24 h",No
same,pH,"[8]; FaSSIF, 1 h",6.5
same,pH,"[8]; FaSSIF, 4 h",6.6
same,pH,"[8]; FaSSIF, 24 h",6.6
same,pH,"[8]; FeSSIF, 1 h",5.1
same,pH,"[8]; FeSSIF, 4 h",5.1
same,pH,"[8]; FeSSIF, 24 h",5.1
same,pH,"[8]; H2O, 1 h",8.4
same,pH,"[8]; H2O, 4 h",8.4
same,pH,"[8]; H2O, 24 h",8.6
same,pH,"[8]; SGF, 1 h",1.9
same,pH,"[8]; SGF, 4 h",1.9
same,pH,"[8]; SGF, 24 h",2.0
same,Purity/initial purity (%),"Solid stability, 1 week; 25° C./60% RH",100.0%
same,Purity (area %),"Solid stability, 1 week; 25° C./60% RH",98.67 area %
same,Crystal form change,"Solid stability, 1 week; 25° C./60% RH",No
same,Purity/initial purity (%),"Solid stability, 1 week; 40° C./75% RH",100.0%
same,Purity (area %),"Solid stability, 1 week; 40° C./75% RH",98.60 area %
same,Crystal form change,"Solid stability, 1 week; 40° C./75% RH",No
